Experimental findings from patent US7230085B2, “Anti-DOTA antibody” (Immunomedics, Inc., priority 2001, dated 2007) are described below.

Where a SMILES comes first, the peptide text is derived from it. The star is where a group is joined. DOTA = O=C(O)CN1CCN(CC(=O)O)CCN(CC(=O)*)CCN(CC(=O)O)CC1

The test system of data set [1] is human colonic tumor cell line, termed GW-39. Briefly: Biodistribution in nude mice bearing GW-39 tumors. Set-up: species or system NcR athymic nude mice. The conditions noted are these: mouse, in vivo. As to the method: NcR athymic nude mice are implanted with cells of the human colonic tumor cell line, termed GW-39. When tumors have reached an appropriate size (>100 mm^3) agents are injected. The I-125-radioiodinated msAb is given first, and at different later times the In-111-IMP-236 is administered. The latter radiolabeled peptide is also given alone to a control group of animals. Doses given to each animal are 1.5×10^−10 moles of I-125-hMN-14×mLG1 (8 uCi of I-125 per animal), and 1.5×10^−11 moles of In-111-IMP-236. At specified times post-injection of the labeled IMP-236 animals are sacrificed and major internal tissues are collected and quantified for both I-125 and In-111 radioactivity.

A further data set relates to LG1 IgG antibody. Briefly: Binding of radiolabeled IMP 236 by LG1 on size-exclusion HPLC. Also noted: species or system mouse. The conditions noted are these: mixed with excess LG1; SE-HPLC shift. The protocol:
Typical procedures for the production of radiolabeled DOTA-peptides incorporating, for example, Y-90 and Lu-177 are as follows. Of particular importance is the maximum specific activity achievable, which depends on the quality of the isotope. The radionuclide, obtained in an acidic solution, is treated with an excess of an acetate buffer, to a final pH of 4-6, and added to the DOTA-peptide conjugate, also in acetate buffer. All manipulations are carried out using acid-washed and metal-free components. The labeling mixture is heated at 45° C. for one hour and then allowed to cool to room temperature. Radiolabeled peptides are analyzed by RP-HPLC to determine incorporation, and are tested for binding to LG1, by mixing with a small excess of the LG1 mAb, and testing by analytical size-exclusion HPLC.
Yttrium-90 (^˜400 uCi per kit) is diluted to 1 mL in deionized water and added in one portion to the lyophilized IMP 236 kits of example 12. The kits are heated in a boiling water-bath for 15 min, and the vials then cooled to room temperature. The Y-90 radiolabeled peptides are analyzed by reverse-phase HPLC. […]
Indium-111 [In-111] radionuclide (^˜300 uCi added per kit) is diluted to 0.5 mL in deionized water and added to the lyophilized kits. […] The labeled peptide vials are cooled to room temperature and evaluated by reverse-phase HPLC. […]
On the technique in general: Size exclusion chromatography separates by hydrodynamic size, large species first.

A further data set relates to hLL2-DOTA-yttrium. Briefly: Qualitative binding on size-exclusion HPLC. The conditions noted are these: SE-HPLC. The text has this:
(§1) The msAb, LG1×hMN-14 (Fab′×Fab) is shown by the same analysis to bind to hLL2-DOTA-yttrium.

A further data set has as its system hLL2-DOTA. Briefly: Qualitative binding on size-exclusion HPLC. The note with it: SE-HPLC.
Excerpt: as §1

Another data set relates to hMN-14-DOTA-yttrium-90. Briefly: Qualitative binding on size-exclusion HPLC. The note with it: SE-HPLC.

In the case of `CC(=O)N[C@@H](Cc1ccccc1)C(=O)N[C@@H](CCCCNC(=O)CN1CCN(CC(=O)O)CCN(CC(=O)O)CCN(CC(=O)O)CC1)C(=O)N[C@@H](Cc1ccc(O)cc1)C(=O)N[C@@H](CCCCNC(=O)CN1CCN(CC(=O)O)CCN(CC(=O)O)CCN(CC(=O)O)CC1)C(N)=O` [In-111-IMP-236, metal not drawn] (Ac-FK(DOTA)YK(DOTA)-NH2), in data set [1], the “Blood, 30 minutes” value is 1.0 ± 0.3 percent injected dose per gram of tissue; the “Blood, 3 h” value was 0.0 ± 0.0 percent injected dose per gram of tissue; the “Blood, 24 h” value is on record as 0.0 ± 0.0 percent injected dose per gram of tissue; the “Blood, In-111, 3 h” value was 0.4 ± 0.0 percent injected dose per gram of tissue. In data set [1], the “Blood, In-111, 24 h” value is on record as 0.0 ± 0.0 percent injected dose per gram of tissue; the “Kidney, 30 minutes” value is listed as 4.2 ± 0.7 percent injected dose per gram of tissue; the “Kidney, 3 h” value is given as 2.2 ± 0.2 percent injected dose per gram of tissue; the “Kidney, 24 h” value is 0.0 ± 0.0 percent injected dose per gram of tissue. Besides, in data set [1], the “Kidney, In-111, 3 h” value was 2.5 ± 0.6 percent injected dose per gram of tissue; the “Kidney, In-111, 24 h” value is reported as 1.0 ± 0.2 percent injected dose per gram of tissue; the “Liver, 30 minutes” value was 0.3 ± 0.1 percent injected dose per gram of tissue; the “Liver, 3 h” value is 0.2 ± 0.1 percent injected dose per gram of tissue. Also, in data set [1], the “Liver, 24 h” value is reported as 0.0 ± 0.0 percent injected dose per gram of tissue; the “Liver, In-111, 3 h” value was 0.2 ± 0.0 percent injected dose per gram of tissue; the “Liver, In-111, 24 h” value is recorded as 0.1 ± 0.0 percent injected dose per gram of tissue; the “Lungs, 30 minutes” value is listed as 0.7 ± 0.2 percent injected dose per gram of tissue. In data set [1], the “Lungs, 3 h” value is listed as 0.1 ± 0.0 percent injected dose per gram of tissue; the “Lungs, 24 h” value is 0.0 ± 0.0 percent injected dose per gram of tissue; the “Lungs, In-111, 3 h” value is 0.2 ± 0.0 percent injected dose per gram of tissue; the “Lungs, In-111, 24 h” value is 0.0 ± 0.0 percent injected dose per gram of tissue. In data set [1], the “Spleen, 30 minutes” value is 0.3 ± 0.1 percent injected dose per gram of tissue; the “Spleen, 3 h” value is 0.1 ± 0.0 percent injected dose per gram of tissue; the “Spleen, 24 h” value is given as 0.0 ± 0.0 percent injected dose per gram of tissue; the “Spleen, In-111, 3 h” value is listed as 0.2 ± 0.0 percent injected dose per gram of tissue. In data set [1], the “Spleen, In-111, 24 h” value is 0.1 ± 0.0 percent injected dose per gram of tissue; the “Stomach, 30 minutes” value is reported as 0.2 ± 0.1 percent injected dose per gram of tissue; the “Stomach, 3 h” value was 0.0 ± 0.0 percent injected dose per gram of tissue; the “Stomach, 24 h” value is recorded as 0.0 ± 0.0 percent injected dose per gram of tissue. Also, in data set [1], the “Stomach, In-111, 3 h” value is 0.1 ± 0.2 percent injected dose per gram of tissue; the “Stomach, In-111, 24 h” value is given as 0.0 ± 0.0 percent injected dose per gram of tissue; the “Tumor, 30 minutes” value is listed as 1.6 ± 0.3 percent injected dose per gram of tissue; the “Tumor, 3 h” value is on record as 0.1 ± 0.0 percent injected dose per gram of tissue. In addition, in data set [1], the “Tumor, 24 h” value is 0.0 ± 0.0 percent injected dose per gram of tissue; the “Tumor, In-111, 3 h” value is recorded as 6.4 ± 1.1 percent injected dose per gram of tissue; the “Tumor, In-111, 24 h” value is 1.3 ± 0.3 percent injected dose per gram of tissue; the elimination result was “quickly eliminated via the renal system”.
“Ac-Phe-Lys(DOTA)-Tyr-Lys(DOTA)-NH2 (Ac-FK(DOTA)YK(DOTA)-NH2; SMILES CC(=O)N[C@@H](Cc1ccccc1)C(=O)N[C@@H](CCCCNC(=O)CN1CCN(CC(=O)O)CCN(CC(=O)O)CCN(CC(=O)O)CC1)C(=O)N[C@@H](Cc1ccc(O)cc1)C(=O)N[C@@H](CCCCNC(=O)CN1CCN(CC(=O)O)CCN(CC(=O)O)CCN(CC(=O)O)CC1)C(N)=O) [IMP 236]”: the “binding of radiolabeled peptide by LG1” value in the data set with LG1 IgG antibody is reported as “bind strongly”.

B1: Fab fragment of LG1: Fab fragment from ficin digestion of LG1 IgG (antibody, V domains shown)
VH: EVMLVESGGGLVKPGGSLTLSCAASGFTFTAHAMSWVRQTPEKRLEWVATISGGGTYTYFPDSFQGRFTISSDNAKNTLYLQMSSLRSEDTSMYFCTRHGDYRYAFGYWGQGTLVTVSA
VL: VVTQESALTTSPGETVTLTCRSSSGAVTTNNYANWVQEKPDHLFTGLIGGTNNRAPGVPARFSGSLIGDKAALTITGAQTEDEAIYFCALWFSDHWVFGGGTELTVLG
Regarding B1, the “binding to hLL2-DOTA-yttrium” value in the data set on hLL2-DOTA-yttrium is listed as “positive binding”. Further, the “binding to hLL2-DOTA” value with hLL2-DOTA was “positive binding”. Moreover, the “binding to hMN-14-DOTA-yttrium-90” value in the data set with hMN-14-DOTA-yttrium-90 is given as “positive binding”.
